Assays:
Assay in all cases: relative viability (nuclei count vs DMSO), 5 days (fraction); higher = more cells survive
4EGI-1 + AZD7762 = compound: O=C(O)C(Cc1ccccc1[N+](=O)[O-])=NNc1nc(-c2ccc(Cl)c(Cl)c2)cs1 (mixture of isomers) [4EGI-1] + NC(=O)Nc1cc(-c2cccc(F)c2)sc1C(=O)N[C@H]1CCCNC1 [AZD7762] (partner 0.2 µM)
How it was run: (§1)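 Lung cancer cell lines in 1536-well plates got either a single drug or a fixed anchor-drug dose together with five library-drug doses (not always all listed) in √10 steps, by pin tool, on the day after seeding. Nuclei were counted after 5 days, and relative viability is the treated-to-vehicle ratio of nuclei counts. Values are medians of duplicate plates.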

XMD8-85 + Pictilisib = compound: CN1CCN(CC1)C2=CC(=C(C=C2)NC3=NC=C4C(=N3)N(C5=CC=CC=C5C(=O)N4C)C)OC [XMD8-85] + CS(=O)(=O)N1CCN(Cc2cc3nc(-c4cccc5[nH]ncc45)nc(N4CCOCC4)c3s2)CC1 [Pictilisib] (partner 1 µM)
How it was run: as §1

4EGI-1 + Lapatinib = compound: O=C(O)C(Cc1ccccc1[N+](=O)[O-])=NNc1nc(-c2ccc(Cl)c(Cl)c2)cs1 (mixture of isomers) [4EGI-1] + CS(=O)(=O)CCNCc1ccc(-c2ccc3ncnc(Nc4ccc(OCc5cccc(F)c5)c(Cl)c4)c3c2)o1 [Lapatinib] (partner 2 µM)
How it was run: as §1

XMD8-85 + Palbociclib = compound: CN1CCN(CC1)C2=CC(=C(C=C2)NC3=NC=C4C(=N3)N(C5=CC=CC=C5C(=O)N4C)C)OC [XMD8-85] + CC(=O)c1c(C)c2cnc(Nc3ccc(N4CCNCC4)cn3)nc2n(C2CCCC2)c1=O [Palbociclib] (partner 0.5 µM)
How it was run: as §1

Cell Line NCI-H1792 has a relative viability (4EGI-1 + AZD7762; first compound 0.5 µM) of 0.67, a relative viability (4EGI-1 + AZD7762; first compound 1.581 µM) of 0.822 and a relative viability (4EGI-1 + AZD7762; first compound 5 µM) of 0.861. For the same cell line, the relative viability (4EGI-1 + AZD7762; first compound 15.81 µM) was 0.657, the relative viability (4EGI-1 + AZD7762; first compound 50 µM) was 0.0923 and the relative viability (XMD8-85 + Pictilisib; first compound 0.08 µM) was 0.251. It also gave a relative viability (XMD8-85 + Pictilisib; first compound 0.253 µM) of 0.226, a relative viability (XMD8-85 + Pictilisib; first compound 2.53 µM) of 0.276 and a relative viability (XMD8-85 + Pictilisib; first compound 8 µM) of 0.317. The relative viability (4EGI-1 + Lapatinib; first compound 0.5 µM) was 0.84, the relative viability (4EGI-1 + Lapatinib; first compound 1.581 µM) was 0.864 and the relative viability (4EGI-1 + Lapatinib; first compound 5 µM) was 0.899. The relative viability (4EGI-1 + Lapatinib; first compound 15.81 µM) was 0.816, the relative viability (4EGI-1 + Lapatinib; first compound 50 µM) was 0.557 and the relative viability (XMD8-85 + Palbociclib; first compound 0.253 µM) was 0.642. The relative viability (XMD8-85 + Palbociclib; first compound 2.53 µM) was 0.835 and the relative viability (XMD8-85 + Palbociclib; first compound 8 µM) was 0.551.
